Results taken from publication PMC5353688, “Both Drosophila matrix metalloproteinases have released and membrane-tethered forms but have different substrates” (Scientific Reports, 2017).

Experiments:
DmMmp2 = target: T1, DmMmp2 (Drosophila melanogaster, UniProt Q8MPP3); assay: gelatin zymography of FLAG immunoprecipitate; assay type: biochemical; settings: GM6001 25 uM in sample before electrophoresis, 10 uM in renaturing and developing buffers; gelatin substrate; complete inhibition, no constant
T1 construct: gene Mmp2; full-length cDNA, 3xFLAG inserted after S710 (before GPI-anchor signal), expressed in S2 cells, immunoprecipitated from conditioned media (released form); ~110 kDa in lysate
T1 sequence (Q8MPP3 137-738): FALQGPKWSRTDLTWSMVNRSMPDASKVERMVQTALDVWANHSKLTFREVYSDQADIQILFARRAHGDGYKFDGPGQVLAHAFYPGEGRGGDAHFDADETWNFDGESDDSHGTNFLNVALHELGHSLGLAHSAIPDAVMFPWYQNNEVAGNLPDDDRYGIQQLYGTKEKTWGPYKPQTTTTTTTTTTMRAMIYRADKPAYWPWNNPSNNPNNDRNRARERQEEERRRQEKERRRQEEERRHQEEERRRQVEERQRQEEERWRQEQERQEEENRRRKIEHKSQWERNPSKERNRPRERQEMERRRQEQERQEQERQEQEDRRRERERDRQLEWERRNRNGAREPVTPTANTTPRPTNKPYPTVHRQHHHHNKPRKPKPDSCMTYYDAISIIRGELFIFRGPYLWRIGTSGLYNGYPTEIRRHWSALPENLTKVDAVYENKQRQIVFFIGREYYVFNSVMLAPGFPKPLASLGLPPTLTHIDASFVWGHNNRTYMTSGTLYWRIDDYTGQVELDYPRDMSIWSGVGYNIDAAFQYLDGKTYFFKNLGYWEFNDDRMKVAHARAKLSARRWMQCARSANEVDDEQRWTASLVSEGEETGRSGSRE

DmMmp1 (Mmp1-PF) = target: T2, DmMmp1 (Mmp1-PF) (Drosophila melanogaster, UniProt Q8MLN6); assay type: biochemical; settings: GM6001 25 uM in sample before electrophoresis, 10 uM in renaturing and developing buffers; casein substrate; complete inhibition, no constant
T2 construct: full-length cDNA (541 residues), C-terminal FLAG kept, expressed in S2 cells, immunoprecipitated from conditioned media; secreted form has lost pro-domain; ~65 kDa in lysate
T2 sequence (Q8MLN6 109-541): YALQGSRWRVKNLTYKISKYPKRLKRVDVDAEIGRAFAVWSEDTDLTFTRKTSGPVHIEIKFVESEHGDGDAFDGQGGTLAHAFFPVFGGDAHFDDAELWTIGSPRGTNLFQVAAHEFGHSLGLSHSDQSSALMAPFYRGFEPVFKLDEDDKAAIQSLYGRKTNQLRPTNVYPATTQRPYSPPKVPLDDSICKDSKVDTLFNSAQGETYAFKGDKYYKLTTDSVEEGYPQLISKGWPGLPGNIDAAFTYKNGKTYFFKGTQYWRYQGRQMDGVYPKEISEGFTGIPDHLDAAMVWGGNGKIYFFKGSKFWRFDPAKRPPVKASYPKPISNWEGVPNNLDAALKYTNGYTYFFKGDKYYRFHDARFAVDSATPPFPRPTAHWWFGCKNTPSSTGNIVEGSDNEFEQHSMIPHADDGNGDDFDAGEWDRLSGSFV

CNC(=O)[C@H](Cc1c[nH]c2ccccc12)NC(=O)[C@@H](CC(=O)NO)CC(C)C [GM6001]
gelatin zymography of FLAG immunoprecipitate (DmMmp2): GM6001 completely inhibited Mmp1 and Mmp2 catalytic activity on zymograms
casein zymography of FLAG immunoprecipitate (DmMmp1 (Mmp1-PF)): GM6001 completely inhibited Mmp1 and Mmp2 catalytic activity on zymograms
